From ChEMBL document CHEMBL4808232, “Discovery of IDO1 inhibitors containing a decahydroquinoline, decahydro-1,6-naphthyridine, or octahydro-1H-pyrrolo[3,2-c]pyridine scaffold” (Bioorg Med Chem Lett, 2021)
Active and inactive are the calls of the source. The calls are words filed in the database; no cut-off is given here.

What was measured:
[1] = MRT in male Wistar Han rat at 0.05 mg/kg, iv; format: ADME, organism-based; settings: in vivo
[2] = target: T1, Indoleamine 2,3-dioxygenase 1 (Homo sapiens, UniProt P14902); assay: Inhibition of IDO1 in human whole blood assessed as unbound concentration; format: tissue-based
[3] = Unbound clearance in male Wistar Han rat at 0.05 mg/kg, iv; format: ADME, organism-based; settings: in vivo
[4] = Clearance in male Wistar Han rats at 0.05 mg/kg, iv; format: ADME, organism-based; settings: rat, in vivo
[5] = target: T1, Indoleamine 2,3-dioxygenase 1; assay: Inhibition of IDO1 in human HeLa cells assessed as production of N-formylkynurenine using tryptophan as substrate in presence of inactivated fetal bovine serum; format: cell-based
[6] = target: T1, Indoleamine 2,3-dioxygenase 1; assay: Inhibition of IDO1 in human whole blood; format: tissue-based
[7] = target: Tryptophan 2,3-dioxygenase (Homo sapiens) (UniProt P48775); assay: Inhibition of TDO in human SW48 cells; format: cell-based
[8] = male, Wistar Han, read-out: MRT

Chain of Tryptophan 2,3-dioxygenase (Homo sapiens) (P48775 whole entry, looked up): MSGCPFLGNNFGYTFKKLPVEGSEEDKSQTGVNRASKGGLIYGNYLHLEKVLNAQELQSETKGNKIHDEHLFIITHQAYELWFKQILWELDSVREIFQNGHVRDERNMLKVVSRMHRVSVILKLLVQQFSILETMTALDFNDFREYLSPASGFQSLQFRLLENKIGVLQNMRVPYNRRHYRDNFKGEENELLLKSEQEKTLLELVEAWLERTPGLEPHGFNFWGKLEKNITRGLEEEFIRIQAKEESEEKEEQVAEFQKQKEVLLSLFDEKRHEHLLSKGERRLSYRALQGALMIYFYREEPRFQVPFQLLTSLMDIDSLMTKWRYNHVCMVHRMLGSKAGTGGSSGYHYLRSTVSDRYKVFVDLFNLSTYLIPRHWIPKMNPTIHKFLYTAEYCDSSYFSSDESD
T1 sequence (P14902 whole entry): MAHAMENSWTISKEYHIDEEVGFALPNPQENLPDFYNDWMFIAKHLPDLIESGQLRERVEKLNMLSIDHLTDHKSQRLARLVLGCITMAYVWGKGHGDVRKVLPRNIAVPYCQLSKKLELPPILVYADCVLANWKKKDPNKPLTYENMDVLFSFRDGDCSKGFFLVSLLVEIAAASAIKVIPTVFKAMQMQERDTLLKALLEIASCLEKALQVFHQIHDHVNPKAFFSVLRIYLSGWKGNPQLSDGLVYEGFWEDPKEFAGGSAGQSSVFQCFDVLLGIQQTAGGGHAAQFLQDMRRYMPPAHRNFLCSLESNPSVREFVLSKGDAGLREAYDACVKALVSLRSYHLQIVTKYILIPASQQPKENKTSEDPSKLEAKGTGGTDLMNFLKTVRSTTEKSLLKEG

Row | Structure (SMILES) | IC50 [5] | inhibition [7] | also measured
1 | C[C@@H](C(=O)Nc1ccc(F)cc1)C1CCC2C(CCCN2C(=O)c2cccc(Cl)c2)C1 (stereo in doubt; 3) [listing 1 of 2 here] | 1 nM | – | MRT [1, 8]: 1.6 h; IC50 [2]: 0.13 nM; CL free [3]: 4427 mL/min/kg; clearance [4]: 51 mL/min/kg; IC50 [6]: 32 nM
2 | C[C@@H](C(=O)Nc1ccc(F)cc1)C1CCC2C(CCCN2C(=O)c2cccc(Cl)c2)C1 (stereo in doubt; 3) [listing 2 of 2 here] | – | inactive | –
3 | C[C@@H](C(=O)Nc1ccc(F)cc1)C1CCC2C(CCCN2C(=O)c2cccc(Cl)c2)C1 (stereo in doubt; 4) [listing 1 of 2 here] | 1.9 nM | – | –
4 | C[C@@H](C(=O)Nc1ccc(F)cc1)C1CCC2C(CCCN2C(=O)c2cccc(Cl)c2)C1 (stereo in doubt; 4) [listing 2 of 2 here] | – | inactive | –
5 | C[C@@H](C(=O)Nc1ccc(F)cc1)C1CCC2C(CCCN2C(=O)c2cccc(Cl)c2)C1 (stereo in doubt; 5) [listing 1 of 2 here] | 2.1 nM | – | IC50 [6]: 312 nM
6 | C[C@@H](C(=O)Nc1ccc(F)cc1)C1CCC2C(CCCN2C(=O)c2cccc(Cl)c2)C1 (stereo in doubt; 5) [listing 2 of 2 here] | – | inactive | –
7 | C[C@@H](C(=O)Nc1ccc(F)cc1)C1CCC2C(CCCN2C(=O)c2cccc(Cl)c2)C1 (stereo in doubt; 6) [listing 1 of 2 here] | 2.3 nM | – | MRT ([1]; 0.05 mg/kg): 1.1 h; CL free [3]: 4484 mL/min/kg
8 | C[C@@H](C(=O)Nc1ccc(F)cc1)C1CCC2C(CCCN2C(=O)c2cccc(Cl)c2)C1 (stereo in doubt; 6) [listing 2 of 2 here] | – | inactive | –
9 | O=C(c1cccc(Cl)c1)N1CCCC2CC(C3(C(=O)Nc4ccc(F)cc4)CCC3)CCC21 (stereo in doubt; 7) [listing 1 of 2 here] | 2.4 nM | – | IC50 [2]: 0.98 nM; IC50 [6]: 123 nM
10 | O=C(c1cccc(Cl)c1)N1CCCC2CC(C3(C(=O)Nc4ccc(F)cc4)CCC3)CCC21 (stereo in doubt; 7) [listing 2 of 2 here] | – | inactive | –
11 | O=C(c1cccc(Cl)c1)N1CCCC2CC(C3(C(=O)Nc4ccc(F)cc4)CCC3)CCC21 (stereo in doubt; 8) [listing 1 of 2 here] | 3 nM | – | –
12 | O=C(c1cccc(Cl)c1)N1CCCC2CC(C3(C(=O)Nc4ccc(F)cc4)CCC3)CCC21 (stereo in doubt; 8) [listing 2 of 2 here] | – | inactive | –
13 | O=C(c1cccc(Cl)c1)N1CCCC2CC(C3(C(=O)Nc4ccc(F)cc4)CCC3)CCC21 (stereo in doubt; 9) [listing 1 of 2 here] | 7 nM | – | –
14 | O=C(c1cccc(Cl)c1)N1CCCC2CC(C3(C(=O)Nc4ccc(F)cc4)CCC3)CCC21 (stereo in doubt; 9) [listing 2 of 2 here] | – | inactive | –
15 | O=C(c1cccc(Cl)c1)N1CCCC2CC(C3(C(=O)Nc4ccc(F)cc4)CCC3)CCC21 (stereo in doubt; 10) [listing 1 of 2 here] | 14 nM | – | –
16 | O=C(c1cccc(Cl)c1)N1CCCC2CC(C3(C(=O)Nc4ccc(F)cc4)CCC3)CCC21 (stereo in doubt; 10) [listing 2 of 2 here] | – | inactive | –
17 | O=C(C1CC1)N1CCCC2CC(C3(C(=O)Nc4ccc(F)cc4)CCC3)CCC21 (stereo in doubt; 11) [listing 1 of 2 here] | 107 nM | – | –
18 | O=C(C1CC1)N1CCCC2CC(C3(C(=O)Nc4ccc(F)cc4)CCC3)CCC21 (stereo in doubt; 11) [listing 2 of 2 here] | – | inactive | –
19 | O=C(C1CC1)N1CCCC2CC(C3(C(=O)Nc4ccc(F)cc4)CCC3)CCC21 (stereo in doubt; 12) [listing 1 of 2 here] | 1.5 nM | – | IC50 [2]: 0.86 nM; IC50 [6]: 15 nM
20 | O=C(C1CC1)N1CCCC2CC(C3(C(=O)Nc4ccc(F)cc4)CCC3)CCC21 (stereo in doubt; 12) [listing 2 of 2 here] | – | inactive | –

Row | Structure (SMILES) | IC50 [5] | inhibition [7] | also measured
21 | O=C(C1CC1)N1CCCC2CC(C3(C(=O)Nc4ccc(F)cc4)CCC3)CCC21 (stereo in doubt; 13) [listing 1 of 2 here] | 19 nM | – | –
22 | O=C(C1CC1)N1CCCC2CC(C3(C(=O)Nc4ccc(F)cc4)CCC3)CCC21 (stereo in doubt; 13) [listing 2 of 2 here] | – | inactive | –
23 | O=C(C1CC1)N1CCCC2CC(C3(C(=O)Nc4ccc(F)cc4)CCC3)CCC21 (stereo in doubt; 14) [listing 1 of 2 here] | 115 nM | – | –
24 | O=C(C1CC1)N1CCCC2CC(C3(C(=O)Nc4ccc(F)cc4)CCC3)CCC21 (stereo in doubt; 14) [listing 2 of 2 here] | – | inactive | –
25 | Cc1nccc(N2CCCC3CC(C4(C(=O)Nc5ccc(F)cc5)CCC4)CCC32)n1 (stereo in doubt; 15) [listing 1 of 2 here] | 1.6 nM | – | MRT [1, 8]: 1.7 h; IC50 [2]: 0.29 nM; CL free [3]: 1309 mL/min/kg; IC50 [6]: 10 nM
26 | Cc1nccc(N2CCCC3CC(C4(C(=O)Nc5ccc(F)cc5)CCC4)CCC32)n1 (stereo in doubt; 15) [listing 2 of 2 here] | – | inactive | –
27 | Cc1nccc(N2CCCC3CC(C4(C(=O)Nc5ccc(F)cc5)CCC4)CCC32)n1 (stereo in doubt; 16) [listing 1 of 2 here] | 4.2 nM | – | MRT ([1]; 0.05 mg/kg): 1.8 h; CL free [3]: 1884 mL/min/kg
28 | Cc1nccc(N2CCCC3CC(C4(C(=O)Nc5ccc(F)cc5)CCC4)CCC32)n1 (stereo in doubt; 16) [listing 2 of 2 here] | – | inactive | –
29 | Cc1nccc(N2CCCC3CC(C4(C(=O)Nc5ccc(F)cc5)CCC4)CCC32)n1 (stereo in doubt; 17) [listing 1 of 2 here] | 32 nM | – | –
30 | Cc1nccc(N2CCCC3CC(C4(C(=O)Nc5ccc(F)cc5)CCC4)CCC32)n1 (stereo in doubt; 17) [listing 2 of 2 here] | – | inactive | –
31 | Cc1nccc(N2CCCC3CC(C4(C(=O)Nc5ccc(F)cc5)CCC4)CCC32)n1 (stereo in doubt; 18) [listing 1 of 2 here] | 5.2 nM | – | –
32 | Cc1nccc(N2CCCC3CC(C4(C(=O)Nc5ccc(F)cc5)CCC4)CCC32)n1 (stereo in doubt; 18) [listing 2 of 2 here] | – | inactive | –
33 | O=C(Nc1ccc(F)cc1)C1(C2CCC3C(CCCN3c3ccnc(C(F)(F)F)n3)C2)CCC1 (stereo in doubt; 19) [listing 1 of 2 here] | 1.9 nM | – | MRT [1, 8]: 1.9 h; CL free [3]: 13321 mL/min/kg
34 | O=C(Nc1ccc(F)cc1)C1(C2CCC3C(CCCN3c3ccnc(C(F)(F)F)n3)C2)CCC1 (stereo in doubt; 19) [listing 2 of 2 here] | – | inactive | –
35 | O=C(Nc1ccc(F)cc1)C1(C2CCC3C(CCCN3c3ccnc(C(F)(F)F)n3)C2)CCC1 (stereo in doubt; 20) [listing 1 of 2 here] | 1.9 nM | – | MRT ([1]; 0.05 mg/kg): 2.7 h; IC50 [2]: 0.1 nM; CL free [3]: 9879 mL/min/kg; IC50 [6]: 48 nM
36 | O=C(Nc1ccc(F)cc1)C1(C2CCC3C(CCCN3c3ccnc(C(F)(F)F)n3)C2)CCC1 (stereo in doubt; 20) [listing 2 of 2 here] | – | inactive | –
37 | O=C(Nc1ccc(F)cc1)C1(C2CCC3C(CCCN3c3ccnc(C(F)(F)F)n3)C2)CCC1 (stereo in doubt; 21) [listing 1 of 2 here] | 2.6 nM | – | MRT ([1]; 0.05 mg/kg): 2.9 h; CL free [3]: 7183 mL/min/kg
38 | O=C(Nc1ccc(F)cc1)C1(C2CCC3C(CCCN3c3ccnc(C(F)(F)F)n3)C2)CCC1 (stereo in doubt; 21) [listing 2 of 2 here] | – | inactive | –
39 | O=C(Nc1ccc(F)cc1)C1(C2CCC3C(CCCN3c3ccnc(C(F)(F)F)n3)C2)CCC1 (stereo in doubt; 22) [listing 1 of 2 here] | 3.2 nM | – | MRT ([1]; 0.05 mg/kg): 3.5 h; CL free [3]: 5951 mL/min/kg
40 | O=C(Nc1ccc(F)cc1)C1(C2CCC3C(CCCN3c3ccnc(C(F)(F)F)n3)C2)CCC1 (stereo in doubt; 22) [listing 2 of 2 here] | – | inactive | –

Row | Structure (SMILES) | IC50 [5] | inhibition [7] | also measured
41 | O=C(CN1CCC2C(CCCN2C(=O)c2cccc(Cl)c2)C1)Nc1ccc(F)cc1 (stereo in doubt; 23) | 3.9 nM | – | –
42 | O=C(CN1CCC2C(CCCN2C(=O)c2cccc(Cl)c2)C1)Nc1ccc(F)cc1 (stereo in doubt; 24) | 2 nM | – | MRT [1, 8]: 1.6 h; CL free [3]: 1401 mL/min/kg; clearance [4]: 61 mL/min/kg
43 | CC(C(=O)Nc1ccc(Cl)cc1)N1CCC2C(CCCN2C(=O)OC2CC2)C1 (stereo in doubt; 25) | 3.7 nM | – | IC50 [6]: 293 nM
44 | CC(C(=O)Nc1ccc(Cl)cc1)N1CCC2C(CCCN2C(=O)OC2CC2)C1 (stereo in doubt; 26) | 9.1 nM | – | –
45 | CC(C(=O)Nc1ccc(Cl)cc1)N1CCC2C(CCCN2C(=O)OC2CC2)C1 (stereo in doubt; 28) | 32 nM | – | –
46 | Cc1nccc(N2CCCC3CN(C(C)C(=O)Nc4ccc(Cl)cc4)CCC32)n1 (stereo in doubt; 29) | 302 nM | – | –
47 | Cc1nccc(N2CCCC3CN(C(C)C(=O)Nc4ccc(Cl)cc4)CCC32)n1 (stereo in doubt; 30) | 40 nM | – | –
48 | Cc1nccc(N2CCCC3CN(C(C)C(=O)Nc4ccc(Cl)cc4)CCC32)n1 (stereo in doubt; 31) | 2.9 nM | – | IC50 [6]: 130 nM
49 | Cc1nccc(N2CCCC3CN(C(C)C(=O)Nc4ccc(Cl)cc4)CCC32)n1 (stereo in doubt; 32) | 12 nM | – | MRT [1, 8]: 2.9 h; CL free [3]: 2381 mL/min/kg; clearance [4]: 31 mL/min/kg
50 | CC(C(=O)Nc1ccc(Cl)cc1)N1CCC2C(CCCN2c2ccnc(C(F)(F)F)n2)C1 (stereo in doubt; 33) | 15 nM | – | MRT [1, 8]: 3 h; CL free [3]: 8439 mL/min/kg; clearance [4]: 19 mL/min/kg
51 | CC(C(=O)Nc1ccc(Cl)cc1)N1CCC2C(CCCN2c2ccnc(C(F)(F)F)n2)C1 (stereo in doubt; 34) | 3.6 nM | – | CL free [3]: 13004 mL/min/kg; IC50 [6]: 809 nM
52 | CC(C(=O)Nc1ccc(Cl)cc1)N1CCC2C(CCCN2c2ccnc(C(F)(F)F)n2)C1 (stereo in doubt; 35) | 430 nM | – | –
53 | CC(C(=O)Nc1ccc(Cl)cc1)N1CCC2C(CCCN2c2ccnc(C(F)(F)F)n2)C1 (stereo in doubt; 36) | 5.4 nM | – | MRT ([1]; 0.05 mg/kg): 3.7 h; CL free [3]: 27767 mL/min/kg; IC50 [6]: 1000 nM
54 | CC(C(=O)Nc1ccc(Cl)cc1)N1CCC2C(CCN2C(=O)OC2CC2)C1 (stereo in doubt; 37) | 11 nM | – | –
55 | CC(C(=O)Nc1ccc(Cl)cc1)N1CCC2C(CCN2C(=O)OC2CC2)C1 (stereo in doubt; 38) | 16 nM | – | MRT [1, 8]: 1.5 h; CL free [3]: 2394 mL/min/kg
56 | CC(C(=O)Nc1ccc(Cl)cc1)N1CCC2C(CCN2C(=O)OC2CC2)C1 (stereo in doubt; 39) | 184 nM | – | MRT ([1]; 0.05 mg/kg): 2.8 h; CL free [3]: 664 mL/min/kg
57 | CC(C(=O)Nc1ccc(Cl)cc1)N1CCC2C(CCN2C(=O)OC2CC2)C1 (stereo in doubt; 40) | 1150 nM | – | –
58 | Cc1nccc(-n2ncc3c2CCN(C(C)C(=O)Nc2ccc(Cl)cc2)C3)n1 (stereo in doubt; 41) | 1050 nM | – | –
59 | Cc1nccc(-n2ncc3c2CCN(C(C)C(=O)Nc2ccc(Cl)cc2)C3)n1 (stereo in doubt; 42) | 27700 nM | – | –
